Experimental data: patent publication US10994010B2, “Selective targeting of the CD40L/Mac-1 interaction by small peptide inhibitors and its use for the treatment of inflammation and atherogenesis” (Universitaetsklinikum Freiburg, priority 2010, dated 2021)
No end group written: not given here.

Key:
[1] = target: T1, CD40L binding to Mac-1 I-domain (Homo sapiens, UniProt P29965); experiment: Solid phase binding assay: blocking of CD40L binding to immobilized Mac-1 I-domain by peptides; details: for blocking of CD40L / Mac-1 I-domain binding: peptides 50 μM
T1 construct: inserting the coding DNA for amino acids E^108 to L^261 in pHOG-21; His (N); trimerization domain (N); made in house
T1 sequence (P29965 108-261): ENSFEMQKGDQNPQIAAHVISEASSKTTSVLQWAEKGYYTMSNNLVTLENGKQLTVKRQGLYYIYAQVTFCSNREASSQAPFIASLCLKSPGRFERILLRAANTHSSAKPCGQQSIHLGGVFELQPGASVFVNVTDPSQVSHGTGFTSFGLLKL
Method: (§1) Solid phase binding assay. Recombinant CD40L was incubated with immobilized Mac-1 I-domain in the presence or absence of blocking peptides. Binding of sCD40L was detected by addition of anti-cmyc-HRP (Invitrogen), TMB-substrate (Pierce), and colorimetric reaction. Alternatively, CD40L (Provitro) was immobilized, and binding of the recombinant Mac-1 I-domain was quantified by addition of anti-His-Biotin (Qiagen), and HRP-coupled streptavidin (Pierce). For the binding to immobilized peptides, CD40L was biotinylated with the Micro Biotinylation Kit (Sigma). A mixture of equal molarities of all peptides served as the positive control in this assay.
The recombinant Mac-1 I-domain was immobilized in 96-well plates (Nunc) in PBS at 4° C. overnight. After blocking in 2% BSA/PBS and subsequent washing with PBS, recombinant CD40L was added to the wells in the indicated concentrations and incubated for 2 hours at 37° C. Effect of the peptides M1-M8 was assessed by incubating CD40L (10 μg/ml) in the presence of peptides (50 μM). After removing of unbound CD40L by washing with 0.1% Tween-20/PBS, anti-c-myc-HRP (Invitrogen) was added and incubated for 2 hours at room temperature. Binding was quantified by addition of TMB-substrate (Pierce), colorimetric reaction at 450 nm. Alternatively, CD40L without a His-tag (Provitro) was immobilized and blocked as described above. Binding of the recombinant Mac-1 I-domain was quantified by addition of anti-His-Biotin monoclonal antibody (Qiagen), HRP-coupled streptavidin (Pierce) and colorimetric reaction at 450 nm. For the specific binding of the Mac-1 I-domain BSA-coated wells were subtracted from the CD40L-coated. Kd was estimated using a one-site binding hyperbola nonlinear regression model with the Software Prism (Graphpad). For quantification of the binding of CD40L to peptides, peptides were immobilized in 96-well plates overnight at 4° C. in 50 mM sodium carbonate, pH 10.6. CD40L was biotinylated using the Micro-Biotinylation-Kit (Sigma) following the manufacturer's instructions and detected by HRP-coupled streptavidin (Pierce) and colorimetric reaction. A mixture of equal molarities of all peptides served as positive control. Absorbance on BSA-coated wells served as negative control and was subtracted.

[2] = tested on: adhesion of Mac-1-CHO cells to GPIbα; experiment: Dynamic flow chamber assay: Mac-1-CHO cells on GPIbα; type: cell-based; details: peptides 1 μM
Method: (§2) 96-well plates (Nunc) were coated with sCD40L and incubated with CHO cells expressing constitutively activated Mac-1, as described previously, or THP-1 cells. Cells were allowed to adhere for 20 to 50 minutes. Blocking antibodies (10 μg/ml) were pre-incubating with the cells. As indicated, assays were carried out in the presence of peptides (50 μM). Permeabilization buffer (6 mg/ml phosphatase substrate (Sigma), 1% Triton X-100, 50 mM sodium acetate, pH 5.5) was added to quantify adhering cells by colorimetric reaction. Alternatively, adhering cells were counted. Murine EC were isolated as previously described. Mac-1 expressing CHO were loaded with CFDA-SE (Invitrogen), allowed to adhere for 45 minutes, and quantified under the fluorescence microscope. […] Adhering and rolling cells were quantified in a parallel flow chamber system (Glycotech) at the indicated shear rates and in the presence of the indicated peptides (1 μM) or antibodies (10 μg/ml). […]
For dynamic adhesion assays, 35 mm dishes were coated overnight at 4° C. with 1% BSA, CD40L, GPIbα (Abnova), ICAM-1 (R&D systems) or fibrinogen (Sigma), at a concentration of 10 μg/ml, and 30 μg/ml, respectively. […] Cells were quantified under the microscope (Olympus). […] Adhesion and rolling of peritoneal exudate cells on isolated murine endothelial cells was quantified as described above. […]

[3] = tested on: human granulocytes and monocytes; experiment: Flow cytometry: binding of CD40L to human granulocytes and monocytes; type: cell-based
Method: (§3) Flow cytometric analysis, platelet activation assays, and quantification of leukocyte-platelet aggregates, were performed as previously described (Zirlik et al., 2007). Binding of cM7 to CD40L-expressing murine fibroblasts was determined by quantification of FITC-coupled cM7. Binding of CD40L to Mac-1 expressing CHO-cells or human leukocytes was performed by incubation with CD40L (10 μg/ml) and subsequent detection with anti-PentaHis antibody (Qiagen).
(§4) Flow cytometric analyses, as well as platelet activation assays and quantification of leukocyte-platelet aggregates were performed as previously described (Quezada et al., Ann. Rev. Immunol. (2004), pp 307-328). Briefly, murine blood samples were taken by intracardiac puncture. Red cells were lyzed in 155 mM NH4Cl, 5.7 mM K2HPO4, 0.1 mM EDTA, pH 7.3. […] Antibodies for epitope specific fluorescence-activated cell sorting (FACS Calibur, BD) included anti-CD11b, anti-CD115, anti-Gr-1, anti-CD4, anti-CD8, anti-CD20, anti-CD41, anti-CD62P, anti-CD54, anti-CD102, and anti-CD106 (all from Ebioscience). Binding of cM7 to CD40L- or mock-transfected murine fibroblasts was determined by incubation of FITC-cM7 at the indicated concentrations with cells for 30 min at 37° C. and subsequent quantification of the fluorescence in the FL-1 channel. […]

[4] = tested on: adhesion of THP-1 cells to CD40L; experiment: Static adhesion assay: activated THP-1 cells on immobilized CD40L; type: cell-based; details: peptides 50 μM
Method: as §2
96-well plates (Nunc) were coated with sCD40L (10 μg/ml) in PBS overnight at 4° C. […] After removal of unbound cells by washing with PBS, permeabilization buffer (6 mg/ml phosphatase substrate (Sigma), 1% Triton X-100, 50 mM sodium acetate, pH 5.5) was added for 1 hour at 37° C. and adhering cells were quantified by colorimetric reaction at 405 nm. Alternatively, adhering cells were counted under the microscope (Zeiss). […]

CD40L = target: T2, CD40L (Homo sapiens, UniProt P29965); experiment: Solid phase assay: direct binding of biotinylated CD40L to immobilized peptides
T2 construct: inserting the coding DNA for amino acids E^108 to L^261 in pHOG-21; c-myc (N); His (N); trimerization domain (N); made in house; host or cells: E. coli TG-1
T2 sequence (P29965 108-261): T1 sequence (P29965 108-261)
Method: as §1
The recombinant Mac-1 I-domain was immobilized in 96-well plates (Nunc) in PBS at 4° C. overnight. […] Effect of the peptides M1-M8 was assessed by incubating CD40L (10 μg/ml) in the presence of peptides (50 μM). […] Binding was quantified by addition of TMB-substrate (Pierce), colorimetric reaction at 450 nm. […] Binding of the recombinant Mac-1 I-domain was quantified by addition of anti-His-Biotin monoclonal antibody (Qiagen), HRP-coupled streptavidin (Pierce) and colorimetric reaction at 450 nm. […] For quantification of the binding of CD40L to peptides, peptides were immobilized in 96-well plates overnight at 4° C. in 50 mM sodium carbonate, pH 10.6. […] Absorbance on BSA-coated wells served as negative control and was subtracted.

[5] = tested on: Mac-1 expressing CHO cells; experiment: Flow cytometry: binding of CD40L to Mac-1 expressing CHO cells; type: cell-based; details: peptides 50 μM
Method: as §3, §4

Row | Sequence | blocking of CD40L / Mac-1 I-domain binding [1] | effect on adhesion of Mac-1-CHO cells to GPIbα [2] | blocking of binding of CD40L to human granulocytes and monocytes [3] | blocking of adhesion of THP-1 cells to CD40L [4] | IC50 ([1]; concentration dependent) | direct binding of CD40L to immobilized peptide (CD40L) | blocking of binding of CD40L to Mac-1-CHO cells [5]
1 | PITQLLGRTHTATGIRK (therapeutically active peptide) [Peptide M2, GPIbα-specific control peptide] | not affecting CD40L-Mac-1 binding | blocked the interaction between Mac-1 and GPIbα |  |  |  |  | 
2 | EQLKKSKTL [Peptide M7] | emerged as potential candidate inhibitors |  | the only peptide blocking binding of CD40L to human granulocytes and monocytes | most efficiently blocked adhesion of THP-1 cells to CD40L | ~4 µM | mediated direct binding to CD40L | neutralized binding of CD40L
